Experimental findings from patent US9969887B2, “Merocyanine-based compounds, and dyes, kits and contrast medium compositions for labelling biomolecules comprising the same” (SFC CO., LTD., priority 2016, dated 2018) are described below.

The subject of data set [1] is DNA. In words: Absorption and emission spectra and quantum efficiency in the presence of DNA. In kind it is physicochemical. The procedure:
Absorption spectra (λabs), emission spectra (λem) and quantum efficiency measured in the presence of DNA with compounds 1 to 8 and 36 to 39, and commercially available SYBR® safe were measured and are shown in Table 3 below.

Data set [2] can be described thus: Absorption and emission spectra, molar extinction coefficient and quantum efficiency in solvent. In kind it is physicochemical. As for the experimental part:
Absorption spectra (λabs), emission spectra (λem), molar extinction coefficient (ε) and quantum efficiency of compounds 1 to 8 obtained in Preparation Examples 1 to 4, and commercially available SYBR® safe were measured and shown in Table 1 below.
Absorption spectra (λabs), emission spectra (λem), molar extinction coefficient (ε) and quantum efficiency of Compounds 36 to 39 obtained in Preparation Examples 6 and 7 and commercially available SYBR® safe were measured and shown in Table 2 below.

Data set [3] relates to Salmonella typhimurium TA98 strain. The experiment in a line: Ames test with S9 mixture. The note with it: for Number of colonies per plate: TA98, S9 mixture. In general terms: The Ames test uses bacterial strains that need an amino acid and regain growth without it when mutated back.
Data set [4] is described as follows: Photobleaching test. In kind it is physicochemical. The note with it: low concentration. The procedure: Real-Time PCR was performed in a 20 μL reaction solution containing only 5 μL of fluorescent dyes (Compound 38, SYBR® green I (Invitrogen) or EvaGreen™ (Biotium)) at various concentrations (dilution times). Cycles of 30 seconds at 25° C. and 30 seconds at 25° C. were repeated 60 times. Fluorescence intensity was measured for each cycle (1 minute) to observe photobleaching of fluorescent dyes at various concentrations (dilution times).

Data set [5] has as its system Hela cells. The experiment in a line: Cell permeability test. In kind it is cell-based. The note with it: 1 μM, 37° C., 30 minutes, microscope. The procedure: Hela cells were cultured in MEM medium containing 10% fetal bovine serum (FBS) and 1% penicillin/streptomycin (10,000 units penicillin and 10,000 μg/mL streptomycin, Invitrogen) under a humidified atmosphere of CO2 at 37° C. Hela cells were washed with medium No. 3, and 1 μM of SYBR® safe and Compound 6 were treated with Hela Cells and cultured at 37° C. for 30 minutes.

“Also recorded” adds a separate entry of the source.

For the compound `O=C(CCCCCN1C=CC2=C3c4sc5ccc(Cl)cc5[n+]4CCC3Oc3cccc1c32)NCCOCCOCCNC(=O)CCCCCN1C=CC2=C3c4sc5ccc(Cl)cc5[n+]4CCC3Oc3cccc1c32` (centres unmarked) [Compound 6], in data set [1], the Quantum efficiency was 0.73, the λabs came out at 517 nm and the λem is reported as 538 nm. In addition, in data set [2] (DMSO), the Quantum efficiency turned out to be 0.62, the “ε (molar extinction coefficient)” value is 70,000 M^−1cm^−1, the λabs is on record as 517 nm and the λem came out at 563 nm. Besides, in data set [2] (buffer), the Quantum efficiency is reported as 0.04, the “ε (molar extinction coefficient)” value is on record as 60,000 M^−1cm^−1, the λabs is listed as 484 nm and the λem worked out at 564 nm. The “Number of colonies per plate” value in data set [3] (8 μg/plate) stood at 24 ± 6. In addition, in data set [3] (40 μg/plate), the “Number of colonies per plate” value came to 57 ± 3. In addition, in data set [3] (TA98, S9 metabolic activity), the “genotoxicity (Ames test), in words” value is “no significant increase in colony counts; also recorded: lower genotoxicity than SYBR® safe”.
`CCCN(CCCN(C)C)c1cc(/C=C2/Sc3ccccc3N2C)c2ccccc2[n+]1-c1ccccc1` [SYBR ® green I]: the “half-life (photobleaching)” value in data set [4] was 5.5 h.
As for `CCC[n+]1ccc(/C=C2\Sc3ccccc3N2C)c2ccccc21` [SYBR ® safe, reference compound], the cell permeability entry in data set [5] is recorded as “shows cell permeability”. In data set [1], the Quantum efficiency amounted to 0.021, the λabs turned out to be 503 nm and the λem came to 535 nm. Also, in data set [2] (DMSO), the Quantum efficiency turned out to be 0.006, the “ε (molar extinction coefficient)” value is given as 77,000 M^−1cm^−1 and the λabs came to 509 nm. In data set [2] (buffer), the Quantum efficiency came to 0.006, the “ε (molar extinction coefficient)” value was 57,000 M^−1cm^−1 and the λabs is listed as 502 nm. In data set [3] (1.6 μg/plate), the “Number of colonies per plate” value is recorded as 81 ± 7.
